Reference: the supplement of paper PMC10307832

What was measured:
Experiment in all cases: relative viability (nuclei count vs DMSO), 5 days (fraction); higher = more cells survive
Linsitinib + Tozasertib = compound: C[C@]1(O)C[C@@H](c2nc(-c3ccc4ccc(-c5ccccc5)nc4c3)c3c(N)nccn32)C1 [Linsitinib] + Cc1cc(Nc2cc(N3CCN(C)CC3)nc(Sc3ccc(NC(=O)C4CC4)cc3)n2)n[nH]1 [Tozasertib] (partner 0.1 µM)
Procedure, shortened: (§1)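 After 5 days of treatment, lung cancer cells in 1536-well plates were fixed and stained in a single step (final 0.05% Triton X-100, 1% formaldehyde, 1 ug/ml Hoechst) and their nuclei counted on 4× images. Treatment had been applied by pin tool the day after seeding as one drug alone or as a fixed anchor-drug dose with five library-drug doses (not always all listed) in √10 steps. Relative viability is the nuclei count of treated wells divided by that of vehicle wells, and values are medians of duplicate plates.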

Linsitinib + Bortezomib = compound: C[C@]1(O)C[C@@H](c2nc(-c3ccc4ccc(-c5ccccc5)nc4c3)c3c(N)nccn32)C1 [Linsitinib] + CC(C)C[C@H](NC(=O)[C@H](Cc1ccccc1)NC(=O)c1cnccn1)B(O)O [Bortezomib] (partner 0.002 µM)
Procedure, shortened: as §1

Linsitinib + Pictilisib = compound: C[C@]1(O)C[C@@H](c2nc(-c3ccc4ccc(-c5ccccc5)nc4c3)c3c(N)nccn32)C1 [Linsitinib] + CS(=O)(=O)N1CCN(Cc2cc3nc(-c4cccc5[nH]ncc45)nc(N4CCOCC4)c3s2)CC1 [Pictilisib] (partner 1 µM)
Procedure, shortened: as §1

Ispinesib + Pemetrexed = compound: Cc1ccc(C(=O)N(CCCN)[C@@H](c2nc3cc(Cl)ccc3c(=O)n2Cc2ccccc2)C(C)C)cc1 [Ispinesib] + Nc1nc2[nH]cc(CCc3ccc(C(=O)N[C@@H](CCC(=O)O)C(=O)O)cc3)c2c(=O)[nH]1 [Pemetrexed] (partner 0.2 µM)
Procedure, shortened: as §1

Cell Line | relative viability (Linsitinib + Tozasertib; first compound 0.01 µM) | relative viability (Linsitinib + Tozasertib; first compound 0.03162 µM) | relative viability (Linsitinib + Tozasertib; first compound 0.1 µM) | relative viability (Linsitinib + Tozasertib; first compound 0.3162 µM) | relative viability (Linsitinib + Tozasertib; first compound 1 µM) | relative viability (Linsitinib + Bortezomib; first compound 0.01 µM) | relative viability (Linsitinib + Bortezomib; first compound 0.03162 µM) | relative viability (Linsitinib + Bortezomib; first compound 0.1 µM) | relative viability (Linsitinib + Bortezomib; first compound 0.3162 µM) | relative viability (Linsitinib + Bortezomib; first compound 1 µM) | relative viability (Linsitinib + Pictilisib; first compound 0.01 µM) | relative viability (Linsitinib + Pictilisib; first compound 0.03162 µM) | relative viability (Linsitinib + Pictilisib; first compound 0.1 µM) | relative viability (Linsitinib + Pictilisib; first compound 0.3162 µM) | relative viability (Linsitinib + Pictilisib; first compound 1 µM) | relative viability (Ispinesib + Pemetrexed; first compound 0.001 µM) | relative viability (Ispinesib + Pemetrexed; first compound 0.003162 µM) | relative viability (Ispinesib + Pemetrexed; first compound 0.01 µM) | relative viability (Ispinesib + Pemetrexed; first compound 0.03162 µM) | relative viability (Ispinesib + Pemetrexed; first compound 0.1 µM)
LCLC-103H | 0.534 | 0.496 | 0.497 | 0.472 | 0.331 | 1.11 | 0.951 | 1.17 | 1.05 | 0.892 | 0.686 | 0.566 | 0.596 | 0.718 | 0.535 | 0.475 | 0.474 | 0.446 | 0.449 | 0.352
HOP-62 | 0.356 | 0.336 | 0.335 | – | 0.344 | 0.857 | 0.488 | 1.03 | – | 0.379 | 0.894 | 0.715 | 0.934 | – | 0.356 | 0.319 | 0.327 | 0.34 | 0.26 | 0.117
NCI-H1355 | 0.584 | 0.576 | 0.475 | 0.458 | 0.428 | 1.19 | 1.25 | 1.18 | 0.748 | 0.79 | 0.433 | 0.437 | 0.343 | 0.228 | 0.359 | 1.13 | 1.09 | 1.16 | 0.809 | 0.259
COR-L23 | 0.196 | 0.207 | 0.396 | 0.174 | 0.152 | 0.861 | 1.03 | 1.08 | 0.896 | 1.06 | 0.769 | 0.924 | 0.652 | 0.393 | 0.341 | 0.197 | 0.195 | 0.183 | 0.158 | 0.147
HCC-44 | 1.1 | 0.889 | 0.849 | 0.557 | 0.573 | 0.841 | 0.775 | 0.874 | 0.497 | 0.529 | 0.579 | 0.634 | 0.66 | 0.317 | 0.311 | 0.682 | 0.663 | 0.657 | 0.496 | 0.391
A-427 | 0.211 | 0.222 | 0.234 | – | 0.177 | 0.974 | 1.02 | 0.987 | – | 0.869 | 0.53 | 0.594 | 0.719 | – | 0.688 | 1.04 | 1.13 | 1.1 | 0.48 | 0.243
NCI-H520 | 0.426 | 0.39 | 0.494 | – | 0.408 | 0.666 | 0.331 | 0.754 | – | 0.62 | 0.324 | 0.306 | 0.285 | – | 0.284 | 0.768 | 0.75 | 0.721 | 0.231 | 0.211
LXF-289 | 0.184 | 0.193 | 0.196 | – | 0.148 | 0.95 | 0.96 | 0.994 | 0.743 | 0.977 | 0.76 | 0.875 | 0.738 | 0.539 | 0.592 | 0.92 | 0.937 | 0.973 | 0.769 | 0.137
NCI-H2087 | 0.219 | 0.259 | 0.196 | 0.141 | 0.203 | 0.947 | 0.97 | 0.945 | 0.594 | 0.641 | 0.92 | 0.906 | 0.723 | 0.294 | 0.775 | 0.667 | 0.715 | 0.66 | 0.635 | 0.149
CAL-12T | 0.267 | 0.287 | 0.296 | 0.255 | 0.225 | 0.873 | 0.882 | 0.996 | 0.833 | 0.817 | 0.44 | 0.368 | 0.585 | 0.379 | 0.336 | 1.31 | 1.24 | 1.41 | 1.12 | 0.235
NCI-H596 | 0.889 | 0.948 | 0.822 | 0.724 | 0.812 | 1.12 | 0.996 | 0.974 | 0.872 | 1.06 | 0.248 | 0.393 | 0.382 | 0.343 | 0.317 | 0.502 | 0.51 | 0.578 | 0.52 | 0.304
PC-14 | 0.559 | 0.542 | 0.578 | 0.486 | 0.427 | 0.792 | 0.762 | 1.02 | 0.923 | 0.767 | 0.691 | 0.701 | 0.75 | 0.598 | 0.5 | 0.132 | 0.139 | 0.0661 | 0.0425 | 0.0577
NCI-H1915 | 0.44 | 0.477 | 0.437 | 0.378 | 0.353 | 0.948 | 0.979 | 0.961 | 0.918 | 0.671 | 0.996 | 0.943 | 0.97 | 0.726 | 0.522 | 0.518 | 0.528 | 0.516 | 0.294 | 0.113
NCI-H647 | 0.342 | 0.262 | 0.319 | – | 0.217 | 1.03 | 1.12 | 1.07 | – | 0.811 | 0.415 | 0.42 | 0.452 | – | 0.347 | 0.165 | 0.161 | 0.124 | 0.118 | 0.0916
NCI-H322M | 0.44 | 0.455 | 0.568 | 0.399 | 0.463 | 1.24 | 1.12 | 1.44 | 0.922 | 1.19 | 0.496 | 0.502 | 0.506 | 0.503 | 0.433 | 0.665 | 0.616 | 0.585 | 0.525 | 0.425
BEN | 0.537 | 0.611 | 0.481 | 0.377 | 0.486 | 0.884 | 0.78 | 0.658 | 0.612 | 0.626 | 0.526 | 0.576 | 0.64 | 0.425 | 0.606 | 0.826 | 0.953 | 0.797 | 0.471 | 0.278
NCI-H2009 | 0.72 | 0.63 | 0.743 | – | 0.629 | 1.01 | 0.926 | 1.07 | 0.185 | 0.898 | 0.946 | 0.796 | 0.833 | 0.101 | 0.687 | 1.13 | 1.06 | 1.03 | 0.936 | 0.44
